Where two headings read alike, the source gives them in different places.
Tests used:
[1] = Stability in liver microsomes, dog
[2] = Stability in liver microsomes, rat
[3] = Stability in cryopreserved hepatocytes, dog; details: for AUC: dog
[4] = Stability in cryopreserved hepatocytes, human; details: for AUC: human
[5] = dog
[6] = Stability in liver microsomes, human; details: for AUC: human
[7] = rat
[8] = Stability in cryopreserved hepatocytes, rat; details: for AUC: rat

| Structure (SMILES) | Trep Concentration 0 min [1] [µM] | Trep Concentration 10 min [1] [µM] | Trep Concentration 20 min [1] [µM] | Trep Concentration 30 min [1] [µM] | Trep Concentration 60 min [1] [µM] | Trep Concentration 0 min [2] [µM] | Trep Concentration 10 min [2] [µM] | Trep Concentration 20 min [2] [µM] | Trep Concentration 30 min [2] [µM] | Trep Concentration 60 min [2] [µM] | Trep Concentration (μM) 0 min [3] [µM] | Trep Concentration (μM) 15 min [3] [µM] | Trep Concentration (μM) 30 min [3] [µM] | Trep Concentration (μM) 60 min [3] [µM] | Trep Concentration (μM) 120 min [3] [µM] | AUC [3] [µmol·min/L] | Trep Concentration (μM) 0 min [4] [µM] | Trep Concentration (μM) 15 min [4] [µM] | Trep Concentration (μM) 30 min [4] [µM] | Trep Concentration (μM) 60 min [4] [µM] | also measured |
| --- | --- | --- | --- | --- | --- | --- | --- | --- | --- | --- | --- | --- | --- | --- | --- | --- | --- | --- | --- | --- | --- |
| CCCCCC(CCC1C(O)CC2Cc3c(cccc3OCC(=O)O)CC21)OC(=O)c1ccccc1O (stereo not drawn) [LXI] | 0.00725 | 0.0115 | 0.0157 | 0.0196 | 0.0259 | 0 | 0 | 0.00316 | 0.00337 | 0.00402 | 0 | 0 | 0.00299 | 0.00396 | 0.00663 | 0.44 | 0 | 0.0213 | 0.0378 | 0.0556 | Trep Concentration (μM) 120 min [4]: 0.0701 µM; AUC [4]: 5.78 µmol·min/L; AUC [5]: 1.09 µmol·min/L; Trep Concentration 0 min [6]: 0.0209 µM; Trep Concentration 10 min [6]: 0.0312 µM; Trep Concentration 20 min [6]: 0.0361 µM; Trep Concentration 30 min [6]: 0.0389 µM; Trep Concentration 60 min [6]: 0.0332 µM; AUC [6]: 2.05 µmol·min/L; AUC [7]: 0.16 µmol·min/L; Trep Concentration (μM) 0 min [8]: 0 µM; Trep Concentration (μM) 15 min [8]: 0 µM; Trep Concentration (μM) 30 min [8]: 0.00373 µM; Trep Concentration (μM) 60 min [8]: 0.00634 µM; Trep Concentration (μM) 120 min [8]: 0.00941 µM; AUC [8]: 0.65 µmol·min/L |
| CCCCCC(CCC1C(O)CC2Cc3c(cccc3OCC(=O)O)CC21)OC(=O)C12CC3CC(CC(C3)C1)C2 (stereo not drawn) [LXIX] | 0.517 | 0.57 | 0.609 | 0.696 | 0.657 | 0.0251 | 0.0344 | 0.0421 | 0.0483 | 0.0527 | 0.00877 | 0.227 | 0.262 | 0.263 | 0.236 | 28.28 | 0 | 0.198 | 0.294 | 0.338 | Trep Concentration (μM) 120 min [4]: 0.335 µM; AUC [4]: 34.85 µmol·min/L; AUC [5]: 38.15 µmol·min/L; Trep Concentration 0 min [6]: 0.321 µM; Trep Concentration 10 min [6]: 0.365 µM; Trep Concentration 20 min [6]: 0.367 µM; Trep Concentration 30 min [6]: 0.36 µM; Trep Concentration 60 min [6]: 0.252 µM; AUC [6]: 19.91 µmol·min/L; AUC [7]: 2.65 µmol·min/L; Trep Concentration (μM) 0 min [8]: 0 µM; Trep Concentration (μM) 15 min [8]: 0.0238 µM; Trep Concentration (μM) 30 min [8]: 0.0421 µM; Trep Concentration (μM) 60 min [8]: 0.0712 µM; Trep Concentration (μM) 120 min [8]: 0.119 µM; AUC [8]: 8.08 µmol·min/L |
| CCCCCC(CCC1C(O)CC2Cc3c(cccc3OCC(=O)O)CC21)OCC(=O)O (stereo not drawn) [LVII] | 0 | 0 | 0 | 0 | 0 | 0 | 0 | 0 | 0 | 0 | 0 | 0 | 0 | 0 | 0 | 0.00 | 0 | 0 | 0 | 0 | Trep Concentration (μM) 120 min [4]: 0 µM; AUC [4]: 0.00 µmol·min/L; AUC [5]: 0.00 µmol·min/L; Trep Concentration 0 min [6]: 0 µM; Trep Concentration 10 min [6]: 0 µM; Trep Concentration 20 min [6]: 0 µM; Trep Concentration 30 min [6]: 0 µM; Trep Concentration 60 min [6]: 0 µM; AUC [6]: 0.00 µmol·min/L; AUC [7]: 0.00 µmol·min/L; Trep Concentration (μM) 0 min [8]: 0 µM; Trep Concentration (μM) 15 min [8]: 0 µM; Trep Concentration (μM) 30 min [8]: 0 µM; Trep Concentration (μM) 60 min [8]: 0 µM; Trep Concentration (μM) 120 min [8]: 0 µM; AUC [8]: 0.00 µmol·min/L |
| CCCCCC1CCC2C(CC3Cc4c(cccc4OCC(=O)O)CC32)OP(=O)(Oc2ccccc2)O1 (mixture of isomers) [XXVIII] | 0 | 0 | 0.00553 | 0.003 | 0 | 0 | 0 | 0 | 0 | 0 | 0 | 0 | 0 | 0 | 0.00339 | 0.10 | 0 | 0 | 0 | 0 | Trep Concentration (μM) 120 min [4]: 0 µM; AUC [4]: 0.00 µmol·min/L; AUC [5]: 0.11 µmol·min/L; Trep Concentration 0 min [6]: 0 µM; Trep Concentration 10 min [6]: 0 µM; Trep Concentration 20 min [6]: 0 µM; Trep Concentration 30 min [6]: 0 µM; Trep Concentration 60 min [6]: 0 µM; AUC [6]: 0.00 µmol·min/L; AUC [7]: 0.00 µmol·min/L; Trep Concentration (μM) 0 min [8]: 0 µM; Trep Concentration (μM) 15 min [8]: 0 µM; Trep Concentration (μM) 30 min [8]: 0 µM; Trep Concentration (μM) 60 min [8]: 0 µM; Trep Concentration (μM) 120 min [8]: 0 µM; AUC [8]: 0.00 µmol·min/L |
| CCCCCC(CCC1C(O)CC2Cc3c(cccc3OCC(=O)O)CC21)OC(=O)NCCO (stereo not drawn) [LIX] | 0 | 0 | 0 | 0 | 0 | 0 | 0 | 0 | 0 | 0 | 0 | 0 | 0.00416 | 0.00836 | 0.00907 | 0.74 | 0 | 0 | 0 | 0 | Trep Concentration (μM) 120 min [4]: 0 µM; AUC [4]: 0.00 µmol·min/L; AUC [5]: 0.00 µmol·min/L; Trep Concentration 0 min [6]: 0 µM; Trep Concentration 10 min [6]: 0 µM; Trep Concentration 20 min [6]: 0 µM; Trep Concentration 30 min [6]: 0 µM; Trep Concentration 60 min [6]: 0 µM; AUC [6]: 0.00 µmol·min/L; AUC [7]: 0.00 µmol·min/L; Trep Concentration (μM) 0 min [8]: 0 µM; Trep Concentration (μM) 15 min [8]: 0 µM; Trep Concentration (μM) 30 min [8]: 0 µM; Trep Concentration (μM) 60 min [8]: 0 µM; Trep Concentration (μM) 120 min [8]: 0 µM; AUC [8]: 0.00 µmol·min/L |

From patent publication US12491170B2, “Stable treprostinil prodrugs” (United Therapeutics Corporation, priority 2020, dated 2025)
